Measurements taken from patent publication US7341985B2, “2-Hydroxy-3-alkoxypropyl sulfides, sulfones, and sulfoxides: new surface active agents” (Air Products and Chemicals, Inc., priority 2004, dated 2008).

Key:
Type in all cases: physicochemical
[1] = Ross-Miles foam test (foam height and stability); settings: 0.1 wt % solution
Protocol: Foam height and stability (time to reach zero foam) were measured by the Ross-Miles foam test, using 0.1 wt % solutions of the surfactants.

Water solubility = experiment: Water solubility
[2] = Equilibrium surface tension (Kruss K-12 tensiometer, Wilhelmy plate); settings: 25±1° C., average of 10 measurements over 10 minutes
Protocol: Equilibrium surface tensions were determined for the compounds prepared in Examples 1-6, using a Kruss K-12 tensiometer with a platinum Wilhelmy plate, maintaining the temperature at 25±1° C. by means of a constant temperature circulating bath. The results, reported in Table 2, are averages of 10 measurements over a 10-minute period, and have a standard deviation of less than 0.01 dyne/cm.

[3] = Dynamic surface tension (Kruss BP-2 Bubble Pressure Tensiometer); settings: for Dynamic surface tension reduction of an aqueous solution (in words): summary of Table 4
Protocol: Dynamic surface tensions were determined for the compounds prepared in Examples 1-5, at 0.1 and 1.0 wt % levels, using a Kruss BP-2 Bubble Pressure Tensiometer.

[4] = 0.1 wt %, 1 b/s (bubbles/second)

Structure (SMILES) | Initial Foam Height [1] | Time to 0 foam [1] | Final Foam Height at 300 Sec [1] | Water Solubility (Water solubility) | Equilibrium Surface Tension ([2]; 0.1 wt % in water) | Equilibrium Surface Tension ([2]; 1.0 wt % in water) | Dynamic surface tension [3, 4] | Dynamic surface tension ([3]; 0.1 wt %, 5 b/s) | Dynamic surface tension ([3]; 0.1 wt %, 20 b/s) | Dynamic surface tension ([3]; 1.0 wt %, 1 b/s) | Dynamic surface tension ([3]; 1.0 wt %, 5 b/s) | Dynamic surface tension ([3]; 1.0 wt %, 20 b/s) | Dynamic surface tension reduction of an aqueous solution (in words) [3]
CCCCC(CC)COCC(O)CSCCO (stereo not drawn) [MEEHGE, 2-hydroxyethyl-2′-hydroxy-3′-(2-ethylhexyloxy)propyl sulfide] | 0.6 cm | 6 s | 0 cm | <0.1 wt % | 30.7 dynes/cm | 29.3 dynes/cm | 35 dynes/cm | 39 dynes/cm | 45 dynes/cm | 30 dynes/cm | 30 dynes/cm | 32 dynes/cm | strong
CCCCOCC(O)CSCCO (stereo not drawn) [MEBGE, 2-hydroxyethyl-2′-hydroxy-3′-butoxypropyl sulfide] | 1.2 cm | 2 s | 0 cm | <0.1 wt % | 37.1 dynes/cm | 32.6 dynes/cm | 59 dynes/cm | 61 dynes/cm | 65 dynes/cm | 43 dynes/cm | 44 dynes/cm | 44 dynes/cm | moderate
CCCCC(CC)COCC(O)CSCC(O)CO (stereo not drawn) [TGEHGE, 2,3-dihydroxypropyl-2′-hydroxy-3′-(2-ethylhexyloxy)propyl sulfide] | 1.0 cm | 6 s | 0 cm | <0.1 wt % | 28.3 dynes/cm | 26.7 dynes/cm | 37 dynes/cm | 47 dynes/cm | 53 dynes/cm | 27 dynes/cm | 28 dynes/cm | 30 dynes/cm | strong
